# Reference: US4699921A, “Pharmaceuticals containing prostaglandin I2” (Mitsubishi Yuka Pharmaceutical Co., Ltd., priority 1984, dated 1987)
# Like-named read-outs stand apart in the source and are kept apart here.
# Assays:
# [1] = system: Human platelet aggregation (ADP induced); assay: Human platelet aggregation inhibiting effect (in vitro); format: cell-based; conditions: human PRP, ADP 2-10 μM, 37° C., one minute preincubation, read-out: Platelet aggregation inhibiting ratio (IC50)
# Protocol: Platelet aggregation inhibiting effect
# Bloods were sampled from healthy voluers (22-34 years old) with no administration of drug for 2 weeks or more early in the morning when they were hungry. By use of an injector filled with 5 ml of 3.8% sodium citrate solution, 50 ml of blood was sampled, immediately stirred by turning upside down and centrifuged at 200×g for 15 minutes. The supernatant was separated as the PRP (platelet rich plasma) and the residue further subjected to centrigugation at 2000×g for 15 minutes, followed by recovery of the supernatant as PPP (poor platelet plasma) which was provided for use in the experiment.
# PRP (250 μ) was placed in a cuvette, 5 μof an 1% ethanol solution of the compound of the present invention or an 1% ethanol solution was added, and incubation was carried out at 37° C. for one minute. Then, an aggregation inducing agent (ADP) was added and the process of aggregation was recorded by Aggregometer (Sienco Co.). As the concentration of ADP, the minimum concentrations of ADP (2-10 μM) to give the maximum aggregation for respective platelets were employed. The inhibition percentage of platelet aggregation was calculated by the following formula:
# Inhibition percentage=(A-B)/A×100
# A: Maximum aggregation ratio during addition of solvent (1% ethanol solution)
# B: Maximum aggregation ratio during addition of the compound of the present invention.
# The platelet aggregation inhibiting effects of the compounds of the present invention are shown in terms of IC50 values in Table 6.
# gastric acid secretion = assay: Antiulcer effect (2): rat gastric acid inhibiting effect (pylorus ligature); format: in vivo, male Wistar rat; conditions: subcutaneous, 100 μg/kg, 4 hours after pylorus ligature; for Amount of gastric acid secreted: solvent 73.6
# Protocol: Male wistar strain rats (weighing 250-280 g) were fasted for 18 hours subjected to peritoneotomy under ether anesthesia for ligature of pylorus, and after 4 hours under abstinence from food and water, gastric juice was sampled. The gastric juice was centrifuged at 3000 rpm for 10 minutes, and then the amount, pH and acidity of the gastric juice were measured. The acidity was measured by titration by means of an automatic titrating device (Toa Denpa Kogyo) with a 0.1N NaOH to pH 7.0 and calculating according to the following formula: [formula]
# The gastric juice secretion inhibition percentage was calculated according to the following formula: [formula] A: Amount of gastric acid excreted in Control group B: Amount of gastric acid excreted in Drug group
# The drugs to be tested were adminsistered subcutaneously immediately after pylorus ligature.
# gastric mucosa damage = assay: Antiulcer effect (1): inhibition of hydrochloric acid induced gastric mucosa damage; format: in vivo, male SD rat; conditions: oral, 25 μg/kg, 30 minutes before 1 ml of 0.6N hydrochloric acid
# Protocol: Male SD-strain rats (weighing 220-255 g) were fasted for 20 hours (water was given ad libitum) and, after further abstinence from food and water for 4 hours, the compound of the present invention was administered orally, followed further by oral administration of 1 ml of 0.6N hydrochloric acid 30 minutes later. One hour after administration of hydrochloric acid, the stomach was enucleated under chloroform anesthesia. The fluid in the stomach was discharged and 7.5 ml of a 1% formalin solution was injected into the stomach to fix the gastric mucosa. Then, the stomach was dissected along the greater curvature and the length of the gastric mucosa damage was measured under a steroscopic microscope. The compound of the present invention was dissolved in 5% ethanol-95% physiological salt solution and administered at a dose of 25 μg/kg in a volume of 5 ml/kg.
# The antiulcer effect of the compound of the present invention was calculated by the following formula: [formula] l: length of gastric mucosa damage in the group to which the compound of the present invention is administered;
# lo: length of gastric mucosa damage in the group of non-administration of drug.
# blood pressure = assay: Hypotensive effect in anesthetized rats; format: in vivo, male Wistar rat; conditions: intravenous, 10 μg/kg
# Protocol: Male wistar strain rats (weighing 240-290 g) were anesthetized by intraperitoneal administration of 50 mg/kg of sodium pentobarbital, and blood pressures were measured. The compound of the present invention was administered intravenously as a solution dissolved in 10 ethanol- 90% physiological salt solution. The hypotensive effect is expressed by the percent change of average blood pressure after intravenous administration (relative to that before administration).
# right femoral artery = assay: Vasodilative effect (perfusion pressure of femoral artery in anesthetized dogs); format: in vivo, dog; conditions: intraarterial, 100 μg/kg
# Protocol: Female and male adult dogs were anesthetized by intraveneous administeration of 30 mg/kg of sodium pentobarbital and fixed on their back positions. The right femoral artery was perfused at constant flow with the dog's own blood by means of a peristaltic pump (Harvard Co.). The perfusion pressure was measured with an electromanometer and systemic blood pressure was measured in the other femoral artery with a pressure transducer. As an anticoagulant, 500 U/kg of heparin sodium was intravenously administered.
# The compound of the present invention was dissolved in 10% ethanol-90% physiological salt solution and administered into arterial blood through a thick rubber tube provided in the perfusion circuit. The vasodilative effect of the compound of the present invention is expressed by the change ratio of perfusion pressure after administration into the artery.
Structure (SMILES),Gastric acid secretion Inhibition (gastric acid secretion) [%],Amount of gastric acid secreted (gastric acid secretion) [mEq/l],IC50 ([1]; Platelet) [nM],other results
"CCCC(C)C[C@H](O)/C=C/[C@H]1[C@H]2CC(C=CCCC(=O)O)=C[C@H]2C[C@H]1O (mixture of isomers) [Compound K, 3-(4'-carboxy-1'-butenyl)-6(S)-(3'(S)-hydroxy-5'(RS)-methyl-trans-1'-octenyl)-7(R)-hydroxy-(1S,5S)-cis-bicyclo[3.3.0]oct-2-ene]",70.5,21.7,–,IC50 [1]: 2 nM
"CCCCC(C)C[C@H](O)/C=C/[C@H]1[C@H]2CC(C=CCCC(=O)O)=C[C@H]2C[C@H]1O (mixture of isomers) [Compound M, 3-(4'-carboxy-1'-butenyl)-6(S)-(3'(S)-hydroxy-5'(RS)-methyl-trans-1'-nonenyl)-7(R)-hydroxy-(1S,5S)-cis-bicyclo[3.3.0]-oct-2-ene]",73.5,19.5,–,IC50 [1]: 4 nM
CCCCC[C@H](O)/C=C/[C@@H]1[C@H]2CC(C=CCCC(=O)O)=C[C@H]2C[C@H]1O [Compound A],–,–,14,–
O=C(O)CCC=CC1=C[C@H]2C[C@@H](O)[C@H](/C=C/[C@@H](O)C3CCCC3)[C@H]2C1 [Compound B],–,–,7,–
CC#CCC(C)[C@H](O)/C=C/[C@@H]1[C@H]2CC(C=CCCC(=O)O)=C[C@H]2C[C@H]1O (some centres unmarked) [Compound C],–,–,0.8,–
CC(C)=CCC[C@@H](C)C[C@H](O)/C=C/[C@@H]1[C@H]2CC(C=CCCC(=O)O)=C[C@H]2C[C@H]1O [Compound D],–,–,20,–
O=C(O)CCC=CC1=C[C@H]2C[C@@H](O)[C@H](/C=C/[C@@H](O)C3CCCCC3)[C@H]2C1 [Compound E],–,–,5,–
"CCC#CCC(C)[C@H](O)/C=C/[C@@H]1[C@H]2CC(C=CCCC(=O)O)=C[C@H]2C[C@H]1O (stereo partly drawn) [Compound F, 3-(4'-carboxy-1'-butenyl)-6(S)-(3'(S)-hydroxy-4'(RS)-methyl-trans-1'-nonen-6'-ynyl)-7(R)-hydroxy-(1S,5S)-cis-bicyclo[3.3.0]oct-2-ene]",81.8,13.4,4,–
CCC#CC(C)C[C@H](O)/C=C/[C@@H]1[C@H]2CC(C=CCCC(=O)O)=C[C@H]2C[C@H]1O (some centres unmarked) [Compound G],–,–,0.6,–
"CCCCCC(C)[C@H](O)/C=C/[C@@H]1[C@H]2CC(C=CCCC(=O)O)=C[C@H]2C[C@H]1O (stereo partly drawn) [Compound H, 3-(4'-carboxy-1'-butenyl)-6(S)-(3'(S)-hydroxy-4'(RS)-methyl-trans-1'-nonenyl-7(R)-hydroxy-1S,5S)-cis-bicyclo[3.3.0]oct-2-ene]",89.9,7.4,8,–
"O=C(O)CCC=CC1=C[C@H]2C[C@@H](O)[C@H](/C=C/[C@@H](O)CCc3ccccc3)[C@H]2C1 [Compound I, 3-(4'-carboxy-1'-butenyl)-6(S)-(3'(S)-hydroxy-5'-phenyl-trans-1'-pentenyl)-7(R)-hydroxy-(1S,5S)-cis-bicyclo[3.3.0]oct-2-ene]",73.5,19.5,80,–
"CCCCC(C)(C)[C@H](O)/C=C/[C@@H]1[C@H]2CC(C=CCCC(=O)O)=C[C@H]2C[C@H]1O [Compound J, 3-(4'-carboxy-1'-butenyl)-6(S)-(3'(S)-hydroxy-4',4'-dimethyl-trans-1'-octenyl)-7(R)-hydroxy-(1S,5S)-cis-bicyclo[3.3.0]oct-2-ene]",18.1,60.3,200,–
CC(C1CCCCC1)[C@H](O)/C=C/[C@@H]1[C@H]2CC(C=CCCC(=O)O)=C[C@H]2C[C@H]1O (some centres unmarked) [Compound L],36.8,46.5,300,–
O=C(O)CCCC=C1C[C@H]2C[C@@H](O)[C@H](/C=C/[C@@H](O)C3CCCC3)[C@H]2C1 [OP-41483],–,–,9,Inhibition of gastric mucosa damage (gastric mucosa damage): -28.3%; Percent change of average blood pressure (blood pressure): -39%; Perfusion pressure change (right femoral artery): -16%
CCCCC[C@H](O)/C=C/[C@H]1[C@H](O)CC(=O)[C@@H]1C/C=C\CCCC(=O)O [PGE2],–,–,–,Inhibition of gastric mucosa damage (gastric mucosa damage): 61.1%
